According to patent publication US12692238B2, “Substituted pyridazinone herbicides” (FMC CORPORATION, priority 2020, dated 2026):
Read-outs that look alike come from different tables or passages of the source.

What was measured:
Assay type in all cases: in vivo
[1] = system: ducksalad (Heteranthera limosa); experiment: Test B flooded paddy test, ducksalad; settings: Heteranthera limosa; 250 g ai/ha, Flood; visually evaluated after 10 to 14 days; read-out: Plant response rating, Ducksalad (0 to 100 scale where 0 is no effect and 100 is complete control)
Procedure, shortened: (§1)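 Plants grown to 2-leaf stage; pots flooded 3 cm above soil and compound applied directly into paddy water, depth maintained throughout. After 10 to 14 days in greenhouse, visual rating versus controls on 0–100 scale (0 no effect, 100 complete control).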

[2] = system: ragweed (common ragweed, Ambrosia artemisiifolia); experiment: Test A postemergence, ragweed; settings: Ambrosia artemisiifolia, post-emergence, 240 h, 10 days, read-out: Plant response rating, Ragweed; for pest or weed control at 31 g/ha: 31 g ai/ha, postemergence, 0 to 100 scale (0 no effect, 100 complete control); for pest or weed control at 125 g/ha: Postemergence, 125 g ai/ha, 0 to 100 scale
Procedure, shortened: (§2)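 Scores reflect visual injury versus untreated controls after 10 days in a greenhouse, on a scale from 0 (none) to 100 (complete control); pre- and postemergence sprays used loam/sand pots, postemergence at the one- to two-leaf stage.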

kochia (Bassia scoparia) [3] = experiment: Test A preemergence, kochia; settings: Bassia scoparia, pre-emergence, 240 h, 0 to 100 scale, 10 days, read-out: Plant response rating, Kochia; for pest or weed control at 31 g/ha: 31 g ai/ha; for pest or weed control at 125 g/ha: 125 g ai/ha
Procedure, shortened: as §2

[4] = system: redroot pigweed (Amaranthus retroflexus); experiment: Test A postemergence, redroot pigweed; settings: 10 days
Procedure, shortened: as §2

rice (Oryza sativa) = experiment: Test B flooded paddy test, rice; settings: Oryza sativa; 250 g ai/ha, Flood; visually evaluated after 10 to 14 days; read-out: Plant response rating, Rice (0 to 100 scale where 0 is no effect and 100 is complete control)
Procedure, shortened: as §1

[5] = system: blackgrass (Alopecurus myosuroides); experiment: Test A postemergence, blackgrass; settings: Alopecurus myosuroides, post-emergence, 240 h, 10 days, read-out: Plant response rating, Blackgrass; for pest or weed control at 31 g/ha: 31 g ai/ha; for pest or weed control at 125 g/ha: 125 g ai/ha
Procedure, shortened: as §2

[6] = system: ragweed (common ragweed, Ambrosia artemisiifolia); experiment: Test A preemergence, ragweed; settings: Ambrosia artemisiifolia, pre-emergence, 240 h, 0 to 100 scale, 10 days, read-out: Plant response rating, Ragweed; for pest or weed control at 31 g/ha: 31 g ai/ha; for pest or weed control at 125 g/ha: 125 g ai/ha
Procedure, shortened: as §2

[7] = system: barnyardgrass (Echinochloa crus-galli); experiment: Test A postemergence, barnyardgrass; settings: Postemergence, 0 to 100 scale, 10 days
Procedure, shortened: as §2

[8] = system: wheat (Triticum aestivum); experiment: Test A postemergence, wheat; settings: Triticum aestivum, post-emergence, 240 h, 10 days, read-out: Plant response rating, Wheat; for plant injury at 31 g/ha: 31 g ai/ha, postemergence, 0 to 100 scale (0 no effect, 100 complete control); for plant injury at 125 g/ha: Postemergence, 125 g ai/ha, 0 to 100 scale
Procedure, shortened: as §2

kochia (Bassia scoparia) [9] = experiment: Test A postemergence, kochia; settings: Bassia scoparia, post-emergence, 240 h, 10 days, read-out: Plant response rating, Kochia; for pest or weed control at 31 g/ha: 31 g ai/ha, postemergence, 0 to 100 scale (0 no effect, 100 complete control); for pest or weed control at 125 g/ha: Postemergence, 125 g ai/ha, 0 to 100 scale
Procedure, shortened: as §2

[10] = system: sedge, umbrella (small-flower umbrella sedge, Cyperus difformis); experiment: Test B flooded paddy test, sedge, umbrella; settings: Cyperus difformis; 250 g ai/ha, Flood; visually evaluated after 10 to 14 days; read-out: Plant response rating, Sedge, Umbrella (0 to 100 scale where 0 is no effect and 100 is complete control)
Procedure, shortened: as §1

[11] = system: redroot pigweed (Amaranthus retroflexus); experiment: Test A preemergence, redroot pigweed; settings: 0 to 100 scale, 10 days
Procedure, shortened: as §2

[12] = system: ryegrass, Italian (Italian ryegrass, Lolium multiflorum); experiment: Test A preemergence, ryegrass, Italian; settings: Lolium multiflorum, pre-emergence, 240 h, 0 to 100 scale, 10 days, read-out: Plant response rating, Ryegrass, Italian; for pest or weed control at 31 g/ha: 31 g ai/ha; for pest or weed control at 125 g/ha: 125 g ai/ha
Procedure, shortened: as §2

[13] = system: ryegrass, Italian (Italian ryegrass, Lolium multiflorum); experiment: Test A postemergence, ryegrass, Italian; settings: Lolium multiflorum, post-emergence, 240 h, 10 days, read-out: Plant response rating, Ryegrass, Italian; for pest or weed control at 31 g/ha: 31 g ai/ha, postemergence, 0 to 100 scale (0 no effect, 100 complete control); for pest or weed control at 125 g/ha: Postemergence, 125 g ai/ha, 0 to 100 scale
Procedure, shortened: as §2

[14] = system: foxtail, giant (giant foxtail, Setaria faberi); experiment: Test A preemergence, foxtail, giant; settings: Setaria faberi, pre-emergence, 240 h, 0 to 100 scale, 10 days, read-out: Plant response rating, Foxtail, Giant; for pest or weed control at 31 g/ha: 31 g ai/ha; for pest or weed control at 125 g/ha: 125 g ai/ha
Procedure, shortened: as §2

[15] = system: foxtail, giant (giant foxtail, Setaria faberi); experiment: Test A postemergence, foxtail, giant; settings: Setaria faberi, post-emergence, 240 h, 10 days, read-out: Plant response rating, Foxtail, Giant; for pest or weed control at 31 g/ha: 31 g ai/ha; for pest or weed control at 125 g/ha: 125 g ai/ha
Procedure, shortened: as §2

[16] = 31 g ai/ha, postemergence, 0 to 100 scale (0 no effect, 100 complete control)
[17] = Postemergence, 125 g ai/ha, 0 to 100 scale
[18] = postemergence, 0 to 100 scale (0 no effect, 100 complete control)

Row | Structure (SMILES) | pest or weed control at 250 g/ha [1] [%] | pest or weed control at 31 g/ha [2] [%] | pest or weed control at 125 g/ha [2] [%] | pest or weed control at 31 g/ha (kochia (Bassia scoparia) [3]) [%] | pest or weed control at 125 g/ha (kochia (Bassia scoparia) [3]) [%] | plant injury at 250 g/ha (rice (Oryza sativa)) [%] | pest or weed control at 31 g/ha ([5]; Postemergence, 0 to 100 scale) [%] | pest or weed control at 125 g/ha ([5]; Postemergence, 0 to 100 scale) [%] | pest or weed control at 31 g/ha [6] [%] | pest or weed control at 125 g/ha [6] [%] | plant injury at 31 g/ha [8] [%] | plant injury at 125 g/ha [8] [%] | pest or weed control at 31 g/ha (kochia (Bassia scoparia) [9]) [%] | pest or weed control at 125 g/ha (kochia (Bassia scoparia) [9]) [%] | pest or weed control at 250 g/ha [10] [%] | pest or weed control at 31 g/ha [12] [%] | pest or weed control at 125 g/ha [12] [%] | pest or weed control at 31 g/ha [13] [%] | pest or weed control at 125 g/ha [13] [%] | pest or weed control at 31 g/ha [14] [%] | other results
1 | CC(=O)OCOc1c(Cl)nn(C)c(=O)c1-c1c(C)sc2cccc(Cl)c12 [Compound 1, 5-[(acetyloxy)methoxy]-6-chloro-4-(4-chloro-2-methylbenzo[b]thien-3-yl)-2-methyl-3(2H)-pyridazinone] | 0 | 70 | 90 | 0 | 10 | 10 | 0 | 0 | 10 | 20 | 0 | 0 | 10 | 50 | 0 | 0 | 10 | 10 | 30 |  | Plant response rating, Pigweed, Redroot [4, 16]: 80; Plant response rating, Pigweed, Redroot [4, 17]: 90; Plant response rating, Barnyardgrass ([7]; 31 g ai/ha): 0; Plant response rating, Barnyardgrass ([7]; 125 g ai/ha): 40; Plant response rating, Pigweed, Redroot ([11]; 31 g ai/ha): 80; Plant response rating, Pigweed, Redroot ([11]; 125 g ai/ha): 90
2 | CC(=O)OCOc1c(Cl)nn(C)c(=O)c1-c1c(C)ccc2ccccc12 [Compound 5, 5-[(acetyloxy)methoxy]-6-chloro-2-methyl-4-(2-methyl-1-naphthalenyl)-3(2H)-pyridazinone] | 80 | 80 | 90 | 40 | 70 | 35 | 20 | 50 | 100 | 100 | 10 | 30 | 30 | 60 | 85 | 70 | 100 | 30 | 80 |  | Plant response rating, Pigweed, Redroot [4, 16]: 90; Plant response rating, Pigweed, Redroot [4, 17]: 100; Plant response rating, Barnyardgrass ([7]; 31 g ai/ha): 40; Plant response rating, Barnyardgrass ([7]; 125 g ai/ha): 80; Plant response rating, Pigweed, Redroot ([11]; 31 g ai/ha): 100; Plant response rating, Pigweed, Redroot ([11]; 125 g ai/ha): 100
3 | COC(=O)OCOc1c(Cl)nn(C)c(=O)c1-c1c2cc(C)ccc2cc2ccc(C)cc12 [Compound 8, [[3-chloro-5-(2,7-dimethyl-9-anthracenyl)-1,6-dihydro-1-methyl-6-oxo-4-pyridazinyl]oxy]methyl methyl carbonate] | 95 | 100 | 100 | 60 | 100 | 0 | 0 | 0 | 40 | 100 | 0 | 0 | 90 | 100 | 95 | 0 | 10 | 10 | 10 | 30 | pest or weed control at 125 g/ha [14]: 70%; pest or weed control at 31 g/ha ([15]; Postemergence, 0 to 100 scale): 10%; pest or weed control at 125 g/ha ([15]; Postemergence, 0 to 100 scale): 70%
4 | Cc1ccc2cc3ccc(C)cc3c(-c3c(OCOC(=O)C(C)(C)C)c(Cl)nn(C)c3=O)c2c1 [Compound 9, [[3-chloro-5-(2,7-dimethyl-9-anthracenyl)-1,6-dihydro-1-methyl-6-oxo-4-pyridazinyl]oxy]methyl 2,2-dimethylpropanoate] | 100 | 80 | 100 | 50 | 100 | 0 | 0 | 0 | 0 | 60 | 0 | 0 | 70 | 90 | 100 | 0 | 0 | 0 | 10 | 0 | pest or weed control at 125 g/ha [14]: 50%; pest or weed control at 31 g/ha ([15]; Postemergence, 0 to 100 scale): 20%; pest or weed control at 125 g/ha ([15]; Postemergence, 0 to 100 scale): 40%
5 | COC(=O)OCOc1c(C)nn(C)c(=O)c1-c1c2cc(C)ccc2cc2ccc(F)cc12 [Compound 15, [[5-(2-fluoro-7-methyl-9-anthracenyl)-1,6-dihydro-1,3-dimethyl-6-oxo-4-pyridazinyl]oxy]methyl methyl carbonate] | 95 | 100 | 100 | 90 | 100 | 65 |  | 10 | 100 | 100 | 0 | 0 | 100 | 100 | 90 | 50 | 100 | 100 | 100 | 100 | pest or weed control at 125 g/ha [14]: 100%; pest or weed control at 31 g/ha [5, 18]: 0%; pest or weed control at 31 g/ha [15, 18]: 100%; pest or weed control at 125 g/ha ([15]; Postemergence, 0 to 100 scale): 100%
